Tests used:
[1] = test system: very dry, irritated and problematic skin; assay: Tending effect of care product on skin; type: in vivo; settings: 0.5% (wt. percent) ectoine in evening primrose oil containing product
[2] = 0.1% (wt. percent) added to evening primrose oil preparation; room temperature, 25° C.; first occurrence of rancid smell
Description: The stability of the preparation was assessed based on the first occurrence of a rancid smell of the evening primrose oil.

Row | Compound | tending effect compared with evening primrose oil containing tending product of identical composition [1] | improved evening primrose oil storage stability compared to a check preparation without diglycerol phosphates [2]
1 | CC1=NCC[C@@H](C(=O)O)N1 [ectoine] | noticeably better tending effect | –
2 | diglycerol phosphate | – | five

Source: patent US20080014153A1, “Topical Preparation For Application To The Skin Containing Natural Oil Of The Evening Primrose (Oenothera Biennis) (=Oleum Oenotherae) And Osmolytes Originating From Extremophilic Microorganisms” (priority 2004, published 2008)
